Among the data in PubChem BioAssay (NCI) are GI50 and TGI values, retold here.

Test systems include K-562 leukemia; SF-268 CNS; UO-31 renal; HCC-2998 colon; MDA-MB-231 breast; BT-549 breast; DU-145 prostate; SNB-19 CNS; CAKI-1 renal; MDA-MB-435.
Assay in all cases: NCI tumour cell line growth inhibition, 48 h

Structures are written as SMILES. Where “and” joins values, the source holds several entries; their conditions need not be identical. Equal values may be shown once.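 Test compounds were applied to cells in 96-well plates for 48 hours at 5 doses. GI50 marks 50% less growth. The concentration for full growth arrest is given as TGI.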

On to `C#C[C@]1(O)CC[C@H]2[C@@H]3CC=C4c5nc(N)sc5CC[C@]4(C)[C@H]3CC[C@@]21C`, for which the GI50 with K-562 leukemia is 2.63 µM; with SF-268 CNS, 3.57 µM; in the assay with UO-31 renal it was 2.68 µM; in the assay on HCC-2998 colon, 4.21 µM; with MDA-MB-231 breast, 3.07 µM; with BT-549 breast, 1.97 µM. Moreover, the GI50 in the assay with DU-145 prostate is 5.19 µM; with SNB-19 CNS it was 6.2 µM; in the assay with CAKI-1 renal it was 3.08 µM; in the assay with MDA-MB-435, 2.22 µM. For the same compound, the TGI was 74.5 µM with K-562 leukemia; 16.5 µM in the assay with SF-268 CNS; 10.5 µM in the assay on UO-31 renal; 19.2 µM in the assay on HCC-2998 colon; 9.67 µM in the assay on MDA-MB-231 breast; 6.26 µM with BT-549 breast. For the same compound, the TGI in the assay with DU-145 prostate came out at 20.8 µM; in the assay on SNB-19 CNS it was 31.1 µM; in the assay with CAKI-1 renal, 14.8 µM; with MDA-MB-435, 7.2 µM.
Regarding `C=C1C[C@@H]2O[C@H]3[C@H]4[C@@H](CC[C@@](C)(OC(=O)CCC)[C@H]42)[C@@H](C)C(=O)O[C@@]3(C)CC[C@H]1OO`, the GI50 was 1.79 µM in the assay with K-562 leukemia; 12.8 µM in the assay on SF-268 CNS; 17.9 µM in the assay with UO-31 renal; 15.9 µM with HCC-2998 colon; 17.9 µM with MDA-MB-231 breast; 36 µM in the assay with BT-549 breast. Further, the GI50 is 18 µM in the assay on DU-145 prostate, 53.8 µM with SNB-19 CNS, 4.8 µM in the assay with CAKI-1 renal and 17 µM with MDA-MB-435. Also, the TGI in the assay on K-562 leukemia was 3.28 µM; with SF-268 CNS, 26 µM; in the assay with UO-31 renal, 33.7 µM; in the assay with HCC-2998 colon, 29.4 µM; in the assay on MDA-MB-231 breast it was 33.2 µM; in the assay with BT-549 breast it was > 100 µM. Besides, the TGI was 32.8 µM with DU-145 prostate, > 100 µM in the assay with SNB-19 CNS, 19.1 µM in the assay on CAKI-1 renal and 33.1 µM in the assay with MDA-MB-435.
Take `CCOc1ccc2cc(-c3nn(CC4CCNCC4)c4ncnc(N)c34)ccc2c1`: the GI50 in the assay on K-562 leukemia was 4.69 µM; in the assay with SF-268 CNS, 12 µM; with UO-31 renal, 5.61 µM; in the assay on HCC-2998 colon it was 17.1 µM; in the assay with MDA-MB-231 breast, 11.1 µM; with BT-549 breast, 13.4 µM. Moreover, the GI50 was 19.1 µM in the assay on DU-145 prostate, 16.7 µM with SNB-19 CNS, 19.2 µM in the assay with CAKI-1 renal and 13.1 µM with MDA-MB-435. For the same compound, the TGI was determined as 17.1 µM in the assay with K-562 leukemia; 28.2 µM in the assay with SF-268 CNS; 20.7 µM with UO-31 renal; 31.5 µM in the assay with HCC-2998 colon; 25.5 µM in the assay with MDA-MB-231 breast; 27.6 µM with BT-549 breast. For the same compound, the TGI with DU-145 prostate came out at 55.6 µM; in the assay on SNB-19 CNS, 34.5 µM; in the assay with CAKI-1 renal, 60 µM; in the assay with MDA-MB-435 it was 25.8 µM.
With `COc1cc2ncnc(Oc3cccc(NC(=O)Nc4cc(C(C)(C)C(F)(F)F)on4)c3)c2cc1OC`, the GI50 was 0.0153 µM and 0.0146 µM with K-562 leukemia; 2.59 µM and 2.69 µM in the assay with SF-268 CNS; 0.552 µM and 0.788 µM in the assay with UO-31 renal; 2.29 µM and 3.28 µM in the assay with HCC-2998 colon; 1.03 µM and 0.571 µM in the assay with MDA-MB-231 breast; 2.4 µM and 3.89 µM with BT-549 breast. The GI50 in the assay on DU-145 prostate was 3.31 µM and 3.84 µM; in the assay with SNB-19 CNS, 4.5 µM and 4.99 µM; with CAKI-1 renal it was 1.06 µM and 1.44 µM; in the assay with MDA-MB-435, 0.335 µM and 0.484 µM. Further, the TGI with K-562 leukemia was 25.9 µM and > 10 µM; in the assay on SF-268 CNS, 17.4 µM and > 10 µM; in the assay on UO-31 renal it was 10.1 µM and > 7.68 µM; in the assay with HCC-2998 colon, 14.9 µM and > 10 µM; in the assay on MDA-MB-231 breast, 4.44 µM and 7.3 µM; in the assay on BT-549 breast, 8.78 µM and > 10 µM. In addition, the TGI in the assay with DU-145 prostate is > 58.5 µM; with SNB-19 CNS, > 100 µM; in the assay on CAKI-1 renal, > 43 µM; in the assay on MDA-MB-435 it was 5.74 µM and > 10 µM.
Turning to `COc1ccc2c(c1)C(=O)c1c-2c(OCCN(C)C)nc2cc(OC)c(OC)cc12`, the GI50 is 5.04 µM in the assay with K-562 leukemia; 0.731 µM in the assay on SF-268 CNS; 0.658 µM in the assay on UO-31 renal; 8.85 µM in the assay on HCC-2998 colon; 10.1 µM in the assay with MDA-MB-231 breast; 26.5 µM with BT-549 breast. For the same compound, the GI50 in the assay on DU-145 prostate is 2.93 µM; in the assay with SNB-19 CNS, 2.28 µM; in the assay on CAKI-1 renal, 3.68 µM; with MDA-MB-435, 5.3 µM. The TGI in the assay with K-562 leukemia was 30.9 µM; in the assay with SF-268 CNS it was 16.3 µM; in the assay with UO-31 renal, 9.37 µM; in the assay with HCC-2998 colon, 49.9 µM; in the assay with MDA-MB-231 breast it was 22.1 µM; in the assay with BT-549 breast it was > 100 µM. Moreover, the TGI in the assay on DU-145 prostate was 34.7 µM; with SNB-19 CNS, 31.5 µM; in the assay on CAKI-1 renal, 31.6 µM; in the assay with MDA-MB-435, > 100 µM.
Consider `CCOC(=O)c1c(NC(=O)c2ccc(Cl)cc2)sc2c(CN(C)C)c(O)ccc12`, for which the GI50 is 1.62 µM in the assay with K-562 leukemia; 7.63 µM in the assay on SF-268 CNS; 4.88 µM in the assay on UO-31 renal; 1.83 µM in the assay on HCC-2998 colon; 6.53 µM with MDA-MB-231 breast; 13.4 µM with BT-549 breast. Also, the GI50 in the assay with DU-145 prostate was 13.2 µM; with SNB-19 CNS, 5.47 µM; with CAKI-1 renal, 5.57 µM; in the assay on MDA-MB-435 it was 6.62 µM. Further, the TGI in the assay with K-562 leukemia was 5.07 µM; in the assay on SF-268 CNS it was 48.8 µM; with UO-31 renal, 25.7 µM; in the assay on HCC-2998 colon it was 3.84 µM; with MDA-MB-231 breast it was 34.5 µM; in the assay with BT-549 breast, > 100 µM. For the same compound, the TGI in the assay with DU-145 prostate was found to be 47.9 µM; with SNB-19 CNS it was 24.8 µM; in the assay on CAKI-1 renal it was 32.5 µM; with MDA-MB-435, 29.9 µM.
